Measurements as given in patent US9695155B2, “Herbicidal substituted pyrimidinyloxy benzene compounds” (E. I. DU PONT DE NEMOURS AND COMPANY, priority 2013, dated 2017).

Tests used:
[1] = test system: yellow nutsedge; assay: Test C postemergence; type: in vivo, Cyperus esculentus; conditions: for Plant response rating (0 to 100), Nutsedge, Yellow: 125 g ai/ha, postemergence; for Plant response rating, Nutsedge, Yellow: Postemergence, scale 0 to 100 (0 no effect, 100 complete control)
In short: (§1)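 Plants were kept under greenhouse conditions for 13–15 days following spray. Pre-emergent application went to soil (loam–sand), post-emergent to foliage at 1–4 leaves. Evaluation: visual, percent control against untreated checks.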

[2] = test system: johnsongrass; assay: Test C postemergence; type: in vivo, Sorghum halepense; conditions: for Johnsongrass plant response rating: 16 g ai/ha, visual rating; for Johnsongrass plant response rating / Plant response rating (0 to 100), Johnsongrass: postemergence; for Johnsongrass plant response rating / Plant response rating, Johnsongrass: scale 0 to 100 (0 no effect, 100 complete control); for Plant response rating (0 to 100), Johnsongrass: 125 g ai/ha; for Plant response rating, Johnsongrass: Postemergence
In short: as §1

[3] = test system: sedge, umbrella; assay: Test B flooded paddy test; type: in vivo, Cyperus difformis; conditions: Flood, 250 g ai/ha; 0 to 100 scale where 0 is no effect and 100 is complete control
In short: (§2)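 Evaluation is visual, against untreated controls, 13 to 15 days after treatment. Before treatment, plants reached the 2-leaf stage; pots were then flooded 3 cm deep, compound was added to the water, and that level was maintained. Ratings run 0 to 100, with 100 meaning complete control.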

[4] = test system: wild oat; assay: Test C postemergence; type: in vivo, Avena fatua; conditions: for Plant response rating (0 to 100), Oat, Wild: 125 g ai/ha, postemergence; for Plant response rating, Oat, Wild: Postemergence, scale 0 to 100 (0 no effect, 100 complete control)
In short: as §1

[5] = test system: waterhemp; assay: Test C postemergence; type: in vivo, Amaranthus rudis; conditions: for Plant response rating (0 to 100), Waterhemp: 125 g ai/ha, postemergence; for Plant response rating, Waterhemp: Postemergence, scale 0 to 100 (0 no effect, 100 complete control)
In short: as §1

[6] = test system: pigweed; assay: Test C postemergence; type: in vivo, Amaranthus retroflexus; conditions: for Plant response rating (0 to 100), Pigweed: 125 g ai/ha, postemergence; for Plant response rating, Pigweed: Postemergence, scale 0 to 100 (0 no effect, 100 complete control)
In short: as §1

[7] = test system: giant foxtail; assay: Test C preemergence; type: in vivo, Setaria faberii; conditions: for Foxtail, Giant plant response rating: preemergence; for Plant response rating, Foxtail, Giant: Preemergence, 31 g ai/ha, scale 0 to 100, 0 no effect, 100 complete control
In short: as §1

[8] = test system: barnyardgrass; assay: Test B flooded paddy test; type: in vivo, Echinochloa crus-galli; conditions: Flood, 250 g ai/ha; 0 to 100 scale where 0 is no effect and 100 is complete control
In short: as §2

[9] = test system: barnyardgrass; assay: Test A postemergence; type: in vivo, Echinochloa crus-galli
In short: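 Greenhouse pot test, loam/sand soil. Formulation: non-phytotoxic solvent mix plus surfactant. Pre: directed spray onto soil after sowing. Post: plants at 1–2 leaf, 2–10 cm. Rated visually vs untreated controls at ~10 d, 0 (no effect) to 100 (complete control).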

[10] = test system: velvetleaf; assay: Test C postemergence; type: in vivo, Abutilon theophrasti; conditions: for Plant response rating (0 to 100), Velvetleaf: 125 g ai/ha, postemergence; for Plant response rating, Velvetleaf: Postemergence, scale 0 to 100 (0 no effect, 100 complete control)
In short: as §1

[11] = test system: barnyardgrass; assay: Test C postemergence; type: in vivo, Echinochloa crus-galli; conditions: for Barnyardgrass plant response rating: 16 g ai/ha, visual rating; for Barnyardgrass plant response rating / Plant response rating (0 to 100), Barnyardgrass: postemergence; for Barnyardgrass plant response rating / Plant response rating, Barnyardgrass: scale 0 to 100 (0 no effect, 100 complete control); for Plant response rating (0 to 100), Barnyardgrass: 125 g ai/ha; for Plant response rating, Barnyardgrass: Postemergence
In short: as §1

[12] = test system: Italian ryegrass; assay: Test C postemergence; type: in vivo, Lolium multiflorum; conditions: for Plant response rating (0 to 100), Ryegrass, Italian: 125 g ai/ha, postemergence; for Plant response rating, Ryegrass, Italian: Postemergence, scale 0 to 100 (0 no effect, 100 complete control)
In short: as §1

[13] = test system: corn; assay: Test C preemergence; type: in vivo, Zea mays; conditions: for Corn plant response rating: preemergence; for Plant response rating, Corn: Preemergence, 31 g ai/ha, scale 0 to 100, 0 no effect, 100 complete control
In short: as §1

[14] = 16 g ai/ha, scale 0 to 100 (0 no effect, 100 complete control)
[15] = 62 g ai/ha, scale 0 (no effect) to 100 (complete control)
[16] = 125 g ai/ha, scale 0 (no effect) to 100 (complete control)
[17] = 125 g ai/ha, 0 to 100 scale where 0 is no effect and 100 is complete control
[18] = 500 g ai/ha, 0 to 100 scale where 0 is no effect and 100 is complete control

Row | Structure (SMILES) | Plant response rating (0 to 100), Nutsedge, Yellow [1] | Plant response rating, Nutsedge, Yellow ([1]; 31 g ai/ha, 13 to 15 days) | Plant response rating, Nutsedge, Yellow ([1]; 62 g ai/ha) | Johnsongrass plant response rating ([2]; 13 to 15 days) | Plant response rating (0 to 100), Johnsongrass [2] | Plant response rating, Johnsongrass ([2]; 31 g ai/ha, 13 to 15 days) | Plant response rating, Johnsongrass ([2]; 62 g ai/ha) | Plant response rating, Sedge, Umbrella [3] | Plant response rating (0 to 100), Oat, Wild [4] | Plant response rating, Oat, Wild ([4]; 31 g ai/ha, 13 to 15 days) | Plant response rating, Oat, Wild ([4]; 62 g ai/ha) | Plant response rating (0 to 100), Waterhemp [5] | Plant response rating, Waterhemp ([5]; 31 g ai/ha, 13 to 15 days) | Plant response rating, Waterhemp ([5]; 62 g ai/ha) | Plant response rating (0 to 100), Pigweed [6] | Plant response rating, Pigweed ([6]; 31 g ai/ha, 13 to 15 days) | Plant response rating, Pigweed ([6]; 62 g ai/ha) | Foxtail, Giant plant response rating [7, 14] | Foxtail, Giant plant response rating [7, 15] | Foxtail, Giant plant response rating [7, 16] | also measured
1 | FCc1cccc(Oc2ncc(Cl)cn2)c1-n1cc(Br)cn1 [Compound 83] | 5 | 0 | 5 | 0 | 10 | 0 | 10 | 45 | 5 | 0 | 10 | 90 | 50 | 70 | 85 | 75 | 75 | 5 | 100 | 100 | Plant response rating, Foxtail, Giant [7]: 75; Plant response rating, Barnyardgrass [8]: 0; Plant response rating, Barnyardgrass [9, 17]: 90; Plant response rating, Barnyardgrass ([9]; 500 g ai/ha, 0 to 100 scale, 0 no effect, 100 complete control): 100; Plant response rating (0 to 100), Velvetleaf [10]: 65; Plant response rating, Velvetleaf ([10]; 31 g ai/ha, 13 to 15 days): 55; Plant response rating, Velvetleaf ([10]; 62 g ai/ha): 50; Barnyardgrass plant response rating ([11]; 13 to 15 days): 5; Plant response rating (0 to 100), Barnyardgrass [11]: 5; Plant response rating, Barnyardgrass ([11]; 31 g ai/ha, 13 to 15 days): 5; Plant response rating, Barnyardgrass ([11]; 62 g ai/ha): 5; Plant response rating (0 to 100), Ryegrass, Italian [12]: 5; Plant response rating, Ryegrass, Italian ([12]; 31 g ai/ha, 13 to 15 days): 0; Plant response rating, Ryegrass, Italian ([12]; 62 g ai/ha): 5; Corn plant response rating [13, 14]: 0; Corn plant response rating [13, 15]: 0; Corn plant response rating [13, 16]: 15; Plant response rating, Corn [13]: 0
2 | N#Cc1cccc(Oc2ncc(F)cn2)c1-n1cc(I)cn1 [Compound 86] | 5 | 0 | 5 | 0 | 5 | 5 | 5 | 65 | 10 | 0 | 5 | 75 | 70 | 60 | 80 | 65 | 65 | 35 | 100 | 100 | Plant response rating, Foxtail, Giant [7]: 75; Plant response rating, Barnyardgrass [8]: 0; Plant response rating, Barnyardgrass [9, 17]: 90; Plant response rating, Barnyardgrass [9, 18]: 100; Plant response rating (0 to 100), Velvetleaf [10]: 65; Plant response rating, Velvetleaf ([10]; 31 g ai/ha, 13 to 15 days): 25; Plant response rating, Velvetleaf ([10]; 62 g ai/ha): 65; Barnyardgrass plant response rating ([11]; 13 to 15 days): 0; Plant response rating (0 to 100), Barnyardgrass [11]: 5; Plant response rating, Barnyardgrass ([11]; 31 g ai/ha, 13 to 15 days): 5; Plant response rating, Barnyardgrass ([11]; 62 g ai/ha): 5; Plant response rating (0 to 100), Ryegrass, Italian [12]: 5; Plant response rating, Ryegrass, Italian ([12]; 31 g ai/ha, 13 to 15 days): 0; Plant response rating, Ryegrass, Italian ([12]; 62 g ai/ha): 5; Corn plant response rating [13, 14]: 0; Corn plant response rating [13, 15]: 30; Corn plant response rating [13, 16]: 80; Plant response rating, Corn [13]: 25
3 | N#Cc1cccc(Oc2ncc(Br)cn2)c1-n1cc(I)cn1 [Compound 88] | 10 | 5 | 10 | 0 | 10 | 0 | 5 | 0 | 10 | 5 | 10 | 90 | 75 | 85 | 90 | 85 | 85 | 5 | 98 | 100 | Plant response rating, Foxtail, Giant [7]: 65; Plant response rating, Barnyardgrass [8]: 0; Plant response rating, Barnyardgrass [9, 17]: 60; Plant response rating, Barnyardgrass [9, 18]: 80; Plant response rating (0 to 100), Velvetleaf [10]: 55; Plant response rating, Velvetleaf ([10]; 31 g ai/ha, 13 to 15 days): 35; Plant response rating, Velvetleaf ([10]; 62 g ai/ha): 40; Barnyardgrass plant response rating ([11]; 13 to 15 days): 5; Plant response rating (0 to 100), Barnyardgrass [11]: 10; Plant response rating, Barnyardgrass ([11]; 31 g ai/ha, 13 to 15 days): 5; Plant response rating, Barnyardgrass ([11]; 62 g ai/ha): 5; Plant response rating (0 to 100), Ryegrass, Italian [12]: 0; Plant response rating, Ryegrass, Italian ([12]; 31 g ai/ha, 13 to 15 days): 5; Plant response rating, Ryegrass, Italian ([12]; 62 g ai/ha): 10; Corn plant response rating [13, 14]: 5; Corn plant response rating [13, 15]: 5; Corn plant response rating [13, 16]: 15; Plant response rating, Corn [13]: 5
